Where two headings read alike, the source gives them in different places. Numbered stars: 1 amine (or outer) side, 2 acyl side, 3 side chain; on linkers, the order of the positions; unused ones are H or OH. Bridge positions count the residues as written; N and C are the ends. Square brackets hold non-standard residues; d marks the D form. Peptide text beside a SMILES is read from it. * marks the point of attachment. DOTA = O=C(O)CN1CCN(CC(=O)O)CCN(CC(=O)*)CCN(CC(=O)O)CC1; Phe(4-Cl) = N[C@@H](Cc1ccc(Cl)cc1)C(=O)O; Arg(Me) = CNC(=N)NCCC[C@H](N)C(=O)O; Ethylenediamine = C(CN[*:2])N[*:1]; X1 = O=C(CC1CCN([*:1])CC1)[*:2]; Lys(Me) = CNCCCC[C@H](N)C(=O)O; Tle = CC(C)(C)[C@H](N)C(=O)O; Aib = CC(C)(N)C(=O)O
Legend:
[1] = molecular target: T1, PSMA-expressing C4-2 cells (Homo sapiens, UniProt Q04609); assay: FACS binding assay (competition with 50 nM PSM-0183); conditions: C4-2 cells, read-out: pIC50 [C4-2] CAT (converted)
T1 construct: PSMA-expressing C4-2 cells (ATCC, Cat. No. CRL-3314) were cultured in RPMI-1640; host or cells: C4-2 cells
T1 sequence (Q04609 whole entry): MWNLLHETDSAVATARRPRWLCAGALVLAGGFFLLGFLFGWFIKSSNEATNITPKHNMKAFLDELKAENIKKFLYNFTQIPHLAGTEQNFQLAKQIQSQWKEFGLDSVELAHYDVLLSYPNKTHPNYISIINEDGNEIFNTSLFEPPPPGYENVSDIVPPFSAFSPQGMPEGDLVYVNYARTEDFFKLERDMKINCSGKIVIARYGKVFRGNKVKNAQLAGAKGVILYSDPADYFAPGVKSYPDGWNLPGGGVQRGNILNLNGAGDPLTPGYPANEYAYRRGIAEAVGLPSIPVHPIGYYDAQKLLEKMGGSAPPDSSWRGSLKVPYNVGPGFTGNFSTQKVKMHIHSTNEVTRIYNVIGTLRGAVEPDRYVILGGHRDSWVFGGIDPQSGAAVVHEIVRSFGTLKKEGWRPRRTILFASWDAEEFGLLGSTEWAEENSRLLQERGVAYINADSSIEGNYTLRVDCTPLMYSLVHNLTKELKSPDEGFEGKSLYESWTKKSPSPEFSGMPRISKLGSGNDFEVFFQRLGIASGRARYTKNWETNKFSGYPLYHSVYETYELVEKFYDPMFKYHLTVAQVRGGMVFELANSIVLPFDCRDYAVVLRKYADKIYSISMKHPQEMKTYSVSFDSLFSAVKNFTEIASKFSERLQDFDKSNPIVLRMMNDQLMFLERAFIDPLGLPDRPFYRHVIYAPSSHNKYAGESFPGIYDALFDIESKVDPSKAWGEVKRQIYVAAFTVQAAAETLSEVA
Summary of the method: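 Competition format: fluorescent tracer PSM-0183 (50 nM) displaced from PSMA on C4-2 cells by a test compound titration over 1 h at 4 °C. Bound tracer was quantified as flow-cytometric AF488 median fluorescence after washing. Four-parameter logistic fits of MFI data gave IC50 and pIC50.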

[2] = molecular target: T2, Fc-fusion protein of human PSMA (hPSMA-Fc) (Homo sapiens, UniProt Q04609); assay: Surface plasmon resonance assay (Biacore T200, single cycle kinetic); assay type: binding; conditions: hPSMA-Fc, 25° C., read-out: pKD CAT (converted)
T2 construct: purchased Acro Biosystems PSA-H5264
T2 sequence (Q04609 44-750 limits assumed): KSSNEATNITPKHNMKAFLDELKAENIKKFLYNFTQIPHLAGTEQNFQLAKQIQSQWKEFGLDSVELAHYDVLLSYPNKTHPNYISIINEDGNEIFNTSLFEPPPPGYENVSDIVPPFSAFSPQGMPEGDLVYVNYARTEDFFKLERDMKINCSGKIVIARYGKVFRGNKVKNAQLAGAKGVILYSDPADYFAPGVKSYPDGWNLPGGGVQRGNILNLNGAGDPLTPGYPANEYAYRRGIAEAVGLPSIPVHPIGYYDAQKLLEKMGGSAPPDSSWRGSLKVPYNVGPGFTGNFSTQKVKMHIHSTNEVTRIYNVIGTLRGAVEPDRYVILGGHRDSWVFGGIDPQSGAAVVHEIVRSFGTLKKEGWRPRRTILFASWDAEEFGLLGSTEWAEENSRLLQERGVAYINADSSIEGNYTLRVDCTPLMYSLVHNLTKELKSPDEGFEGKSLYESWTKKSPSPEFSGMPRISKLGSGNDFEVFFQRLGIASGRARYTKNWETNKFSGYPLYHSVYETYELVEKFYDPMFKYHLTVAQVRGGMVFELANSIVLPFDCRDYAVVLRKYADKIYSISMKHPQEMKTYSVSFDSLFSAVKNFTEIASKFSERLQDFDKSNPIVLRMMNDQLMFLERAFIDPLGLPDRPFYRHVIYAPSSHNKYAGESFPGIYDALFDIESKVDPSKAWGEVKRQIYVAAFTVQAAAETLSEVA
Summary of the method: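 KD, expressed as pKD, came from 1:1 Langmuir fits of reference- and buffer-blank-subtracted SPR data. The runs were single-cycle kinetics at 25° C in HBST/0.1% DMSO over human PSMA-Fc, captured to ~1000 RU on a peptide-coated CM5 surface and regenerated with 10 mM glycine pH 1.5.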

recombinant human PSMA = molecular target: T3, recombinant human PSMA (Homo sapiens, UniProt Q04609); assay: Enzyme inhibition assay (GCPII Inhibitor Screening Kit, fluorescence-based); assay type: biochemical; conditions: carboxypeptidase activity of recombinant human PSMA; highest final concentration 1 μM
T3 construct: purchased BioVision K440-100
T3 sequence (Q04609 whole entry): as the sequence (Q04609 whole entry) above
Procedure: This peptidase activity hydrolyzes γ-peptide bonds between N-acetyl amino acid and glutamate of its substrate.
The carboxypeptidase inhibition of recombinant human PSMA by test compounds was assessed using a commercial fluorescence-based PSMA activity inhibition assay.
The employed Glutamate Carboxypeptidase II (GCPII) Inhibitor Screening Kit (BioVision, Cat #K440-100) is a fluorescence-based, enzymatic in vitro assay to measure the potency of PSMA inhibitors. The provided substrate is […] in the presence of PSMA producing glutamate. The detection system is based on an enzymatic reaction in which a fluorogenic probe is reduced, generating a stable signal.
For the assay, recombinant human PSMA was diluted in GCPII Assay Buffer as recommended in the assay protocol. Serial dilutions of the test compounds were prepared, starting from 10 μM (final reaction concentration of 1 μM). In a 96-well assay plate, 40 μL of the PSMA working solution was mixed with 30 μL of GCPII Assay Buffer. Next, 10 μL of the serially diluted test compounds were added. The mixture was incubated for 20 min at 37° C. Subsequently, 20 μL of a reaction mix solution was added. The fluorescence signal increased due to fluorophore reduction, which is directly proportional to the produced amount of glutamate, was measured in kinetic mode for 90 minutes at 37° C. in a SpectraMax M5 plate reader. RFU/see was assessed by the SoftMax Pro software and plotted against peptide concentrations. Four-parameter logistic (4PL) curve fitting and pIC50 calculations were performed using the GraphPad Prism software.

PC3-PIP tumor model = tested on: PC3-PIP tumor model; parameters: species or system mice; conditions: mouse, in vivo
Summary of the method: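 Male nude mice bearing shoulder xenografts (5×10^6 PC3-PIP cells, or 5×10^6 or 1×10^7 C4-2 cells) received ~30 MBq of ^111In-labeled compound intravenously via tail vein. SPECT/CT regions of interest for heart, kidney and tumor gave % ID/g, mean of two to three animals per time point, range as error.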

[3] = pKD category for PSMA SPR activity assay

SMILES	IC50 ([1]; pIC50 category of FACS binding) [nM]	Kd [2, 3] [nM]	IC50 (recombinant human PSMA) [nM]	AUC ratio [T/K] (PC3-PIP tumor model)	Tumor AUC (PC3-PIP tumor model) [% ID/g*h]	IC50 ([1]; FACS binding, competition with 50 nM PSM-0183, category) [nM]	Kd ([2]; SPR, single cycle kinetic, category) [nM]
C[C@@H](O)[C@H](NC(=O)[C@@H](NC(=O)[C@@H]1CSSC[C@H](NC(=O)[C@H](Cc2ccc(Cl)cc2)NC(=O)C(C)(C)NC(=O)[C@@H](NC(=O)CC2CCN(C(=O)CN3CCN(CC(=O)O)CCN(CC(=O)O)CCN(CC(=O)O)CC3)CC2)[C@@H](C)O)C(=O)N[C@@H](CCCCN)C(=O)N[C@@H](CCCNC(=N)N)C(=O)N[C@@H](CCC(=O)O)C(=O)N[C@@H](CC(N)=O)C(=O)N1)C(C)(C)C)C(N)=O [PSM-0416, DOTA-Cmp-Thr-Aib-Pcf-[Cys-Lys-Arg-Glu-Asn-Cys]-Tle-Thr-NH2] ({DOTA}-[X1]T[Aib][Phe(4-Cl)]CKRENC[Tle]T-NH2; disulfide 5-10)	< 200	< 12.6	> 1000	1.6	170	–	–
CNCCCC[C@@H]1NC(=O)[C@@H](NC(=O)[C@H](Cc2ccc(Cl)cc2)NC(=O)C(C)(C)NC(=O)[C@@H](NC(=O)CC2CCN(C(=O)CN3CCN(CC(=O)O)CCN(CC(=O)O)CCN(CC(=O)O)CC3)CC2)[C@@H](C)O)CSSC[C@@H](C(=O)N[C@H](C(=O)N[C@H](C(N)=O)[C@@H](C)O)C(C)(C)C)NC(=O)[C@H](CC(N)=O)NC(=O)C(C)(C)NC(=O)[C@H](CCCNC(=N)NC)NC1=O [PSM-0194, DOTA-Cmp-Thr-Aib-Pcf-[Cys-Lys(Me)-Arg(Me)-Aib-Asn-Cys]-Tle-Thr-NH2] ({DOTA}-[X1]T[Aib][Phe(4-Cl)]C[Lys(Me)][Arg(Me)][Aib]NC[Tle]T-NH2; disulfide 5-10)	–	–	> 1000	6.7	180	< 200	< 12.6
CNCCCC[C@@H]1NC(=O)[C@@H](NC(=O)[C@H](Cc2ccc(Cl)cc2)NC(=O)C(C)(C)NC(C)=O)CSSC[C@@H](C(=O)N[C@H](C(=O)NCCNC(=O)CN2CCN(CC(=O)O)CCN(CC(=O)O)CCN(CC(=O)O)CC2)C(C)(C)C)NC(=O)[C@H](CC(N)=O)NC(=O)C(C)(C)NC(=O)[C@H](CCCNC(=N)NC)NC1=O [PSM-0481, Ac-Aib-Pcf-[Cys-Lys(Me)-Arg(Me)-Aib-Asn-Cys]-Tle-en-DOTA] (Ac-[Aib][Phe(4-Cl)]C[Lys(Me)][Arg(Me)][Aib]NC[Tle]-{Ethylenediamine-DOTA}; disulfide 3-8)	< 200	< 12.6	–	2.6	130	–	–

Now from value to molecule:

IC50 ([1]; pIC50 category of FACS binding) [nM]	Kd [2, 3] [nM]	IC50 (recombinant human PSMA) [nM]	AUC ratio [T/K] (PC3-PIP tumor model)	Tumor AUC (PC3-PIP tumor model) [% ID/g*h]	IC50 ([1]; FACS binding, competition with 50 nM PSM-0183, category) [nM]	Kd ([2]; SPR, single cycle kinetic, category) [nM]	SMILES
< 200	< 12.6	> 1000	–	–	–	–	CC(=O)NC(C)(C)C(=O)N[C@@H](Cc1ccc(Cl)cc1)C(=O)N[C@H]1CSSC[C@@H](C(=O)N[C@H](C(N)=O)C(C)(C)C)NC(=O)[C@H](CC(N)=O)NC(=O)C(C)(C)NC(=O)[C@H](CCCNC(=N)N)NC(=O)[C@H](CCCCN)NC1=O [PSM-0424, Ac-Aib-Pcf-[Cys-Lys-Arg-Aib-Asn-Cys]-Tle-NH2] (Ac-[Aib][Phe(4-Cl)]CKR[Aib]NC[Tle]-NH2; disulfide 3-8)
< 200	< 12.6	> 1000	–	–	–	–	CC(=O)N[C@H](C(=O)NC(C)(C)C(=O)N[C@@H](Cc1ccccc1)C(=O)N[C@H]1CSSC[C@@H](C(=O)N[C@H](C(=O)N[C@H](C(=O)N[C@@H](CC(=O)O)C(N)=O)[C@@H](C)O)C(C)(C)C)NC(=O)[C@H](CC(N)=O)NC(=O)C(C)(C)NC(=O)[C@H](CCCNC(=N)N)NC(=O)[C@H](CCCCN)NC1=O)[C@@H](C)O [PSM-0374, Ac-Thr-Aib-Phe-[Cys-Lys-Arg-Aib-Asn-Cys]-Tle-Thr-Asp-NH2] (Ac-T[Aib]FCKR[Aib]NC[Tle]TD-NH2; disulfide 4-9)
< 200	< 12.6	> 1000	1.4	250	–	–	CC(=O)NC(C)(C)C(=O)N[C@@H](Cc1ccc(Cl)cc1)C(=O)N[C@H]1CSSC[C@@H](C(=O)N[C@H](C(=O)NCCNC(=O)CN2CCN(CC(=O)O)CCN(CC(=O)O)CCN(CC(=O)O)CC2)C(C)(C)C)NC(=O)[C@H](CC(N)=O)NC(=O)C(C)(C)NC(=O)[C@H](CCCNC(=N)N)NC(=O)[C@H](CCCCN)NC1=O [PSM-0516, Ac-Aib-Pcf-[Cys-Lys-Arg-Aib-Asn-Cys]-Tle-en-DOTA] (Ac-[Aib][Phe(4-Cl)]CKR[Aib]NC[Tle]-{Ethylenediamine-DOTA}; disulfide 3-8)
